From patent US9107411B2, “Indolecarboxamides and benzimidazolecarboxamides as insecticides and acaricides” (BAYER INTELLECTUAL PROPERTY GMBH, priority 2011, dated 2015)
Read-outs that look alike come from different tables or passages of the source.

Experiments:
Spodoptera frugiperda = Spodoptera frugiperda test (SPODFR spray treatment); assay type: in vivo; conditions: maize leaf discs, after 7 days
Summary of the method: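 Mortality read-out at 7 days, given as % efficacy, where 100% means every caterpillar dead and 0% none. Caterpillars were placed on dried maize leaf discs that had been sprayed with test formulation. That formulation was an acetone/dimethylformamide concentrate diluted in emulsifier-containing water.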

Phaedon cochleariae = assay: Phaedon test (PHAECO spray treatment); assay type: in vivo; conditions: Chinese cabbage leaf discs, after 7 days
Summary of the method: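 Larval mortality was assessed 7 days after Phaedon cochleariae larvae were placed on dried, spray-treated Brassica pekinensis leaf discs. The formulation was an acetone/dimethylformamide concentrate with alkylaryl polyglycol ether emulsifier, diluted in emulsifier-containing water. Results are given as % kill, from 0 (no larvae dead) to 100 (all dead).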

Tetranychus urticae = assay: Tetranychus test, OP-resistant (TETRUR spray treatment); assay type: in vivo; conditions: bean leaf discs, after 6 days
Summary of the method: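 Bean leaf discs infested with all stages of OP-resistant T. urticae sprayed with compound formulated in acetone/DMF plus alkylaryl polyglycol ether emulsifier, diluted in water. Efficacy (% mites killed) scored after 6 days.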

Myzus persicae = assay: Myzus test (MYZUPE spray treatment); assay type: in vivo; conditions: Chinese cabbage leaf discs, after 6 days
Method: Myzus Test (MYZUPE Spray Treatment) Solvent: 78 parts by weight of acetone • • 1.5 parts by weight of dimethylformamide Emulsifier: 0.5 part by weight of alkylaryl polyglycol ether To produce an appropriate active ingredient formulation, 1 part by weight of active ingredient is mixed with the stated amounts of solvent and emulsifier, and the concentrate is diluted with emulsifier-containing water to the desired concentration. Leaf discs of Chinese cabbage (Brassica pekinensis) infested by all stages of the green peach aphid (Myzus persicae) are sprayed with an active ingredient formulation of the desired concentration. After 6 days, the efficacy in % is determined. 100% means that all of the aphids have been killed; 0% means that none of the aphids have been killed.

logP (HPLC-MS) = assay type: physicochemical
Lucilia cuprina larvae = assay: Lucilia cuprina test (LUCICU); assay type: in vivo; conditions: application rate 100 ppm; treated horse meat; after 2 days
Method: (§1) Lucilia cuprina Test (LUCICU) Solvent: dimethyl sulphoxide To prepare an appropriate active ingredient formulation, 10 mg of active ingredient are mixed with 0.5 ml of dimethyl sulphoxide and the concentrate is diluted with water to the desired concentration. Vessels containing horse meat treated with the active ingredient formulation of the desired concentration are populated with about 20 Lucilia cuprina larvae. After 2 days, the kill in % is determined. 100% means that all of the larvae have been killed; 0% means that none of the larvae have been killed.

adult Musca domestica = assay: Musca domestica test (MUSCDO); assay type: in vivo; conditions: application rate 100 ppm; treated sponge; after 2 days
Method: as §1, with “Musca domestica” for “Lucilia cuprina”, “(MUSCDO)” for “(LUCICU)”, “a sponge” for “horse meat”, “adult Musca domestica.” for “about 20 Lucilia cuprina larvae.”, “determined” for “determined.”, “flies” for “larvae”

Boophilus microplus = Boophilus microplus test (BOOPMI injection); assay type: in vivo; conditions: application rate 20 μg/animal; injected into the abdomen; after 7 days
Method: Boophilus microplus Test (BOOPMI Injection) Solvent: dimethyl sulphoxide To prepare an appropriate active ingredient formulation, 10 mg of active ingredient are mixed with 0.5 ml of solvent and the concentrate is diluted with solvent to the desired concentration. The active ingredient solution is injected into the abdomen (Boophilus microplus), and the animals are transferred into dishes and stored in a climate-controlled room. After 7 days, the efficacy in % is determined. The activity is assessed by laying of fertile eggs. 100% means that none of the ticks has laid any fertile eggs.

Ctenocephalides felis = Ctenocephalides felis oral (CTECFE); assay type: in vivo; conditions: application rate 100 ppm in citrated cattle blood; after 2 days
Method: Ctenocephalides felis Oral ([…]) Solvent: 1 part by weight of dimethyl sulphoxide For the purpose of preparing an appropriate active ingredient formulation, 10 mg of active ingredient are mixed with 0.5 ml of dimethyl sulphoxide. A portion of the concentrate is diluted with citrated cattle blood, and the desired concentration is prepared. About 20 unfed adult fleas (Ctenocephalides felis) are placed into a chamber which is closed at the top and bottom with gauze. A metal cylinder whose bottom end is closed with Parafilm is placed onto the chamber. The cylinder contains the blood/active ingredient formulation, which can be imbibed by the fleas through the Parafilm membrane. After 2 days, the kill in % is determined 100% means that all of the fleas have been killed; 0% means that none of the fleas have been killed.

[1] = HPLC, reversed-phase column (C18), 43° C., acidic range pH 2.7, EEC directive 79/831 Annex V.A8, two values = both regioisomers (G = N)
[2] = HPLC, reversed-phase column (C18), acidic range pH 2.7, acetonitrile (0.1% formic acid)/water gradient, 43° C., calibration with unbranched alkan-2-ones

SMILES	efficacy in % (Spodoptera frugiperda; application rate 500 g/ha) [%]	efficacy in % (Tetranychus urticae; application rate 500 g/ha) [%]	efficacy in % (Myzus persicae; application rate 100 g/ha) [%]	log p (logP (HPLC-MS); [1])	efficacy in % (Spodoptera frugiperda; application rate 100 g/ha) [%]	efficacy in % (Phaedon cochleariae; application rate 100 g/ha) [%]	efficacy in % (Tetranychus urticae; application rate 100 g/ha) [%]	log p (logP (HPLC-MS); [2])	other results
N#CCn1c(C(=O)NC(c2ccc(F)c(C(F)(F)F)c2)C(F)(F)F)nc2cc(C(=O)NC3CC3)c(Cl)cc21 (stereo not drawn) [Compound 301]	100	90	–	–	–	–	–	–	efficacy in % (Phaedon cochleariae; application rate 500 g/ha): 100%; efficacy in % (Myzus persicae; application rate 500 g/ha): 90%
O=C(NC1CC1)c1cc2nc(C(=O)NC(c3cccc(C(F)(F)F)c3)C(F)(F)F)n(C3CC3)c2cc1Cl (stereo not drawn) [Compound 312, 6-chloro-N^5,1-dicyclopropyl-N^2-{2,2,2-trifluoro-1-[3-(trifluoromethyl)phenyl]ethyl}-1H-benzimidazole-2,5-dicarboxamide]	100	–	100	–	–	–	–	–	chromatographic logP (logP (HPLC-MS); HPLC, reversed-phase column (C18), 43° C., acidic range pH 2.7, EEC directive 79/831 Annex V.A8, two values = both regioisomers (G = N), read-out: log p): 3.48; chromatographic logP (logP (HPLC-MS); HPLC-MS): 3.48; pest or weed control at 500 g/ha (Phaedon cochleariae; Phaedon cochleariae, foliar, 168 h, application rate 500 g/ha, read-out: efficacy in %): 100%; efficacy in % (Myzus persicae; application rate 500 g/ha): 100%
CCn1c(C(=O)NC(c2ccc(F)c(F)c2)C(F)(F)F)cc2cc(C(=O)NC3CC3)c(C)cc21 (stereo not drawn) [Compound 295]	–	–	90	3.40	100	100	100	–	–
CCn1c(C(=O)NC(c2ccc(Cl)c(Cl)c2)C(F)(F)F)cc2cc(C(=O)NC3(C#N)CC3)c(Cl)cc21 (stereo not drawn) [Compound 316]	–	–	90	4.06	100	100	100	–	–
C#CCn1c(C(=O)NC(c2cccc(Cl)c2)C(F)(F)F)cc2cc(C(=O)NC3CC3)c(Cl)cc21 (stereo not drawn) [Compound 5]	100	100	–	–	–	–	–	3.45	efficacy in % (Phaedon cochleariae; application rate 500 g/ha): 100%; efficacy in % (Myzus persicae; application rate 500 g/ha): 90%
CCn1c(C(=O)NC(c2ccc(F)c(F)c2)C(F)(F)F)cc2cc(C(=O)NC3(C#N)CC3)c(Cl)cc21 (stereo not drawn) [Compound 315]	–	–	90	3.47	100	100	100	–	–
O=C(NC1CC1)c1cc2nc(C(=O)NC(c3cccc(Br)c3)C(F)(F)F)n(C3CC3)c2cc1Cl (stereo not drawn) [Compound 314]	–	–	90	3.43	100	100	90	–	–
C=CCN(C(=O)c1cc2nc(C(=O)NC(c3ccc(F)c(Cl)c3)C(F)(F)F)n(CC=C)c2cc1Cl)C1CC1 (stereo not drawn) [Compound 303]	100	100	90	4.75	–	–	–	–	efficacy in % (Phaedon cochleariae; application rate 500 g/ha): 100%
CCn1c(C(=O)NC(c2cccc(C(F)(F)F)c2)C(F)(F)F)cc2cc(C(=O)NC3(C#N)CC3)c(C)cc21 (stereo not drawn) [Compound 183]	–	–	90	–	100	100	100	3.75	–
C#CCn1c(C(=O)NC(c2ccc(F)c(Cl)c2)C(F)(F)F)nc2cc(C(=O)NC3CC3)c(Cl)cc21 (stereo not drawn) [Compound 101]	–	–	80	–	100	100	80	3.50	–
O=C(NC1CC1)c1cc2nc(C(=O)NC(c3ccc(F)c(C(F)(F)F)c3)C(F)(F)F)n(C3CC3)c2cc1Br (stereo not drawn) [Compound 300]	100	100	100	3.59	–	–	–	–	efficacy in % (Phaedon cochleariae; application rate 500 g/ha): 100%
CCn1c(C(=O)NC(c2cc(Cl)c(F)c(Cl)c2)C(F)(F)F)cc2cc(C(=O)NC3(C#N)CC3)c(Cl)cc21 (stereo not drawn) [Compound 311]	–	–	90	4.19	100	100	100	–	–
C#CCn1c(C(=O)NC(c2cccc(C(F)(F)F)c2)C(F)(F)F)cc2cc(C(=O)NC3(C#N)CC3)c(C)cc21 (stereo not drawn) [Compound 209]	–	–	90	–	100	100	100	3.48	–
C#CCn1c(C(=O)NC(c2cccc(C(F)(F)F)c2)C(F)(F)F)cc2cc(C(=O)NC3(C#N)CC3)c(Cl)cc21 (stereo not drawn) [Compound 57, 6-chloro-N^5-(1-cyanocyclopropyl)-1-(prop-2-yn-1-yl)-N^2-{2,2,2-trifluoro-1-[3-(trifluoromethyl)phenyl]ethyl}-1H-indole-2,5-dicarboxamide]	–	–	–	–	100	–	100	–	chromatographic logP (logP (HPLC-MS); HPLC, reversed-phase column (C18), acidic range pH 2.7, acetonitrile (0.1% formic acid)/water gradient, 43° C., calibration with unbranched alkan-2-ones, read-out: log p): 3.49; chromatographic logP (logP (HPLC-MS); HPLC-MS): 3.49; efficacy (kill in %) (Lucilia cuprina larvae): 100%; efficacy (kill in %) (adult Musca domestica): 100%; efficacy (laying of fertile eggs) (Boophilus microplus): 100%; pest or weed control at 100 g/ha (Phaedon cochleariae; Phaedon cochleariae, foliar, 168 h, application rate 100 g/ha, read-out: efficacy in %): 100%; efficacy (kill in %) (Ctenocephalides felis): 100%
CCn1c(C(=O)NC(c2ccc(F)c(C(F)(F)F)c2)C(F)(F)F)cc2cc(C(=O)NC3CC3)c(Cl)cc21 (stereo not drawn) [Compound 3]	–	100	–	–	100	100	–	3.93	efficacy (kill in %) (Lucilia cuprina larvae): 100%; efficacy (kill in %) (adult Musca domestica): 100%; efficacy (laying of fertile eggs) (Boophilus microplus): 100%; efficacy (kill in %) (Ctenocephalides felis): 100%
O=C(NC1CC1)c1cc2nc(C(=O)NC(c3ccc(F)c(C(F)(F)F)c3)C(F)(F)F)n(C3CC3)c2cc1Cl (stereo not drawn) [Compound 313]	100	90	–	3.38	–	–	–	–	efficacy in % (Phaedon cochleariae; application rate 500 g/ha): 100%; efficacy in % (Myzus persicae; application rate 500 g/ha): 90%
CC#CCn1c(C(=O)NC(c2cccc(C(F)(F)F)c2)C(F)(F)F)cc2cc(C(=O)NC3(C#N)CC3)c(Cl)cc21 (stereo not drawn) [Compound 285]	–	–	–	3.87	100	100	100	–	efficacy (kill in %) (Lucilia cuprina larvae): 100%; efficacy (kill in %) (adult Musca domestica): 90%; efficacy (laying of fertile eggs) (Boophilus microplus): 100%; efficacy (kill in %) (Ctenocephalides felis): 100%
Cn1c(C(=O)NC(c2ccc(F)c(C(F)(F)F)c2)C(F)(F)F)cc2cc(C(=O)NC3CC3)c(Cl)cc21 (stereo not drawn) [Compound 49]	–	–	–	–	100	100	100	3.70	efficacy (kill in %) (Lucilia cuprina larvae): 100%; efficacy (kill in %) (adult Musca domestica): 100%; efficacy (laying of fertile eggs) (Boophilus microplus): 100%; efficacy (kill in %) (Ctenocephalides felis): 98%
Cn1c(C(=O)NC(c2ccc(F)c(Br)c2)C(F)(F)F)cc2cc(C(=O)NC3(C#N)CC3)c(Cl)cc21 (stereo not drawn) [Compound 52]	–	–	–	–	100	100	100	3.44	efficacy (kill in %) (Lucilia cuprina larvae): 100%; efficacy (kill in %) (adult Musca domestica): 100%; efficacy (laying of fertile eggs) (Boophilus microplus): 100%; efficacy (kill in %) (Ctenocephalides felis): 100%
